Converted amounts (≈) assume the structure as drawn.
Tests used:
Format in all cases: functional
[1] = system: Streptococcus constellatus; test: Antibacterial activity against Streptococcus constellatus obtained from complicated skin and skin structure infections by agar dilution method
Staphylococcus cohnii = test: Antibacterial activity against coagulase-negative Staphylococcus cohnii obtained from complicated skin and skin structure infections by agar dilution method
[2] = system: Staphylococcus intermedius; test: Antibacterial activity against Staphylococcus intermedius obtained from complicated skin and skin structure infections by agar dilution method
Staphylococcus hominis = test: Antibacterial activity against coagulase-negative Staphylococcus hominis obtained from complicated skin and skin structure infections by agar dilution method
Lactococcus lactis = test: Antibacterial activity against Lactococcus lactis obtained from complicated skin and skin structure infections by agar dilution method
[3] = system: Staphylococcus lugdunensis; test: Antibacterial activity against coagulase-negative Staphylococcus lugdunensis obtained from complicated skin and skin structure infections by agar dilution method
[4] = Antibacterial activity against Streptococcus sp. 'group G' obtained from complicated skin and skin structure infections by agar dilution method
Staphylococcus = test: Antibacterial activity against methicillin-susceptible, coagulase-negative Staphylococcus obtained from complicated skin and skin structure infections by agar dilution method
[5] = Antibacterial activity against Streptococcus sp. 'group C' obtained from complicated skin and skin structure infections by agar dilution method
Staphylococcus aureus [6] = test: Antibacterial activity against methicillin susceptible Staphylococcus aureus obtained from complicated skin and skin structure infections by agar dilution method
Enterococcus faecium = test: Antibacterial activity against Enterococcus faecium obtained from complicated skin and skin structure infections by agar dilution method
Enterococcus faecalis = test: Antibacterial activity against Enterococcus faecalis obtained from complicated skin and skin structure infections by agar dilution method
Staphylococcus aureus [7] = test: Antibacterial activity against methicillin resistant Staphylococcus aureus obtained from complicated skin and skin structure infections by agar dilution method
Aerococcus viridans = test: Antibacterial activity against Aerococcus viridans obtained from complicated skin and skin structure infections by agar dilution method
Staphylococcus warneri = test: Antibacterial activity against coagulase-negative Staphylococcus warneri obtained from complicated skin and skin structure infections by agar dilution method
Streptococcus mitis = test: Antibacterial activity against Streptococcus mitis obtained from complicated skin and skin structure infections by agar dilution method
Mammaliicoccus sciuri = test: Antibacterial activity against coagulase-negative Staphylococcus sciuri obtained from complicated skin and skin structure infections by agar dilution method
Staphylococcus capitis = test: Antibacterial activity against coagulase-negative Staphylococcus capitis obtained from complicated skin and skin structure infections by agar dilution method
[8] = system: Staphylococcus haemolyticus; test: Antibacterial activity against coagulase-negative Staphylococcus haemolyticus obtained from complicated skin and skin structure infections by agar dilution method
Streptococcus pyogenes = test: Antibacterial activity against Streptococcus pyogenes obtained from complicated skin and skin structure infections by agar dilution method
Bacillus = test: Antibacterial activity against Bacillus spp. obtained from complicated skin and skin structure infections by agar dilution method
[9] = system: Staphylococcus epidermidis; test: Antibacterial activity against coagulase-negative Staphylococcus epidermidis obtained from complicated skin and skin structure infections by agar dilution method
[10] = system: Staphylococcus lugdunensis; test: Antibacterial activity against methicillin-resistant, oxacillin-susceptible, coagulase-negative, mecA-positive Staphylococcus lugdunensis obtained from complicated skin and skin structure infections by agar dilution method
Gemella = test: Antibacterial activity against Gemella spp. obtained from complicated skin and skin structure infections by agar dilution method
Micrococcus = test: Antibacterial activity against Micrococcus spp. obtained from complicated skin and skin structure infections by agar dilution method
[11] = system: Staphylococcus saprophyticus; test: Antibacterial activity against coagulase-negative Staphylococcus saprophyticus obtained from complicated skin and skin structure infections by agar dilution method
Streptococcus agalactiae = test: Antibacterial activity against Streptococcus agalactiae obtained from complicated skin and skin structure infections by agar dilution method
Gemella morbillorum = test: Antibacterial activity against Gemella morbillorum obtained from complicated skin and skin structure infections […]

## CCC[C@@H]1C[C@@H](C(=O)N[C@@H]([C@H]2O[C@H](SC)[C@H](O)[C@@H](O)[C@H]2O)[C@H](C)Cl)N(C)C1 [CLINDAMYCIN]
[1]
  MIC: ≤ 0.06 µg/mL
  MIC50: ≤ 0.06 µg/mL
  MIC90: 0.06 µg/mL (≈ 0.141 µM)
Staphylococcus cohnii
  MIC50: 0.06 µg/mL (≈ 0.141 µM)
  MIC90: 1 µg/mL (≈ 2.35 µM)
[2]
  MIC50: 2 µg/mL (≈ 4.71 µM)
  MIC90: 4 µg/mL (≈ 9.41 µM)
Staphylococcus hominis
  MIC50: 0.06 µg/mL (≈ 0.141 µM)
  MIC90: 1 µg/mL (≈ 2.35 µM)
Lactococcus lactis
  MIC50: 1 µg/mL (≈ 2.35 µM)
  MIC90: 4 µg/mL (≈ 9.41 µM)
[3]
  MIC50: 0.06 µg/mL (≈ 0.141 µM)
  MIC90: 1 µg/mL (≈ 2.35 µM)
[4]
  MIC50: 0.06 µg/mL (≈ 0.141 µM)
  MIC90: 0.06 µg/mL (≈ 0.141 µM)
Staphylococcus
  MIC50: ≤ 0.06 µg/mL
  MIC90: 0.12 µg/mL (≈ 0.282 µM)
[5]
  MIC50: ≤ 0.06 µg/mL
  MIC90: 0.25 µg/mL (≈ 0.588 µM)
Staphylococcus aureus [6]
  MIC50: 0.12 µg/mL (≈ 0.282 µM)
  MIC90: 0.12 µg/mL (≈ 0.282 µM)
Enterococcus faecium
  MIC: ≤ 0.06 µg/mL
  MIC50: 0.06 µg/mL (≈ 0.141 µM)
Enterococcus faecalis
  MIC50: 16 µg/mL (≈ 37.6 µM)
  MIC90: > 8 µg/mL
Staphylococcus aureus [7]
  MIC50: 0.12 µg/mL (≈ 0.282 µM)
  MIC90: > 16 µg/mL
Aerococcus viridans
  MIC50: 1 µg/mL (≈ 2.35 µM)
  MIC90: 4 µg/mL (≈ 9.41 µM)
Staphylococcus warneri
  MIC50: 0.06 µg/mL (≈ 0.141 µM)
  MIC90: 1 µg/mL (≈ 2.35 µM)
Streptococcus mitis
  MIC50: 2 µg/mL (≈ 4.71 µM)
  MIC90: 4 µg/mL (≈ 9.41 µM)
Mammaliicoccus sciuri
  MIC50: 0.06 µg/mL (≈ 0.141 µM)
  MIC90: 1 µg/mL (≈ 2.35 µM)
Staphylococcus capitis
  MIC50: 0.06 µg/mL (≈ 0.141 µM)
  MIC90: 1 µg/mL (≈ 2.35 µM)
[8]
  MIC50: 0.06 µg/mL (≈ 0.141 µM)
  MIC90: 1 µg/mL (≈ 2.35 µM)
Streptococcus pyogenes
  MIC50: 0.06 µg/mL (≈ 0.141 µM)
  MIC90: 0.06 µg/mL (≈ 0.141 µM)
Bacillus
  MIC50: 1 µg/mL (≈ 2.35 µM)
  MIC90: 4 µg/mL (≈ 9.41 µM)
[9]
  MIC50: 0.06 µg/mL (≈ 0.141 µM)
  MIC90: 1 µg/mL (≈ 2.35 µM)
[10]
  MIC50: 0.06 µg/mL (≈ 0.141 µM)
  MIC90: > 8 µg/mL
Gemella
  MIC50: 1 µg/mL (≈ 2.35 µM)
  MIC90: 4 µg/mL (≈ 9.41 µM)
Micrococcus
  MIC50: 1 µg/mL (≈ 2.35 µM)
  MIC90: 4 µg/mL (≈ 9.41 µM)
[11]
  MIC50: 0.06 µg/mL (≈ 0.141 µM)
  MIC90: 1 µg/mL (≈ 2.35 µM)
Streptococcus agalactiae
  MIC50: 0.06 µg/mL (≈ 0.141 µM)
  MIC90: > 16 µg/mL
Gemella morbillorum
  MIC50: 1 µg/mL (≈ 2.35 µM)
  MIC90: 4 µg/mL (≈ 9.41 µM)
